{
  "source": "patent US20090012152A1",
  "about": "“Use of Tetramic Acid Derivatives for Controlling Insects from the Genus of the Plane Lice (Sternorrhyncha)” (Bayer CropScience Aktiengesellschaft, priority 2005, published 2009)",
  "format_in_all_cases": "in vivo",
  "key": {"[1]": {"system": "Pemphigus bursarius", "experiment": "Example 2: chrysanthemums, lettuce root aphid, foliar spray", "details": "on roots, spray on above-ground parts, rate : I-9 144, I-2 96", "description": "In three replications, in each case 10 109-day-old chrysanthemums of the cultivar “Camilla” in 2 l-vessels are treated against the lettuce root aphid Pemphigus bursarius. Here, the active compounds Example (I-9) (240 SC) and Example (I-2) (240 SC) are applied with a knapsack sprayer operated by pressurized air at the stated application rates only to the above-ground parts of the plants. The soil is covered with a film. The application rate is 300 l of water/ha. 0.1% a.i. of rapeseed oil methyl ester (500 EW) is added to the spray liquor.\nThe kill in percent is determined on the roots. 21 and 29 days after the application, the following results are obtained: […]"}, "[2]": {"system": "Ceroplastes rubens", "experiment": "Example 12: satsuma trees treated against Ceroplastes rubens", "details": "41 days after treatment; live animals counted, Henderson and Tilton; satsuma tree; % a.i.: buprofezin 0.025, I-4 0.0072", "description": "In three replications, in each case one about 4-year-old satsuma tree of the cultivar “Nankan 20” is treated against Ceroplastes rubens. Here, the active compound Example (I-4) (240 SC) in a tank mix with 0.1% of rapeseed oil methyl ester (500 EW) at the stated application rate is tested against the commercial standard buprofezin (25 WP) at the stated application rate. The application is carried out using a motor-operated knapsack sprayer. Here, treatment is carried out using an application rate of 400 l of water/ha.\nEvaluation is carried out before and 41 days after the treatment by counting the live animals. The efficacy in percent is then calculated according to Henderson and Tilton."}, "[3]": {"system": "Aleurothrixus floccosus", "experiment": "Example 39: orange trees treated against Aleurothrixus floccosus", "details": "on branches, % a.i.: Juvinal 0.005, I-4 0.0072", "description": "In three replications, about 55-year-old orange trees of the cultivar “Amargo” are treated against Aleurothrixus floccosus. The application is carried out using a motor-operated knapsack sprayer. Here, the active compound Example (I-4) (240 SC), in a tank mix with 0.1% a.i. of rapeseed oil methyl ester (500 EW), is tested at the stated application rate against the standard Juvinal (100 EC) at the stated application rates, applied once. The application rate is 2630 l of water/ha.\nEvaluation is carried out 36, 51, 62 and 76 days after the treatment by rating the kill on the branches."}, "[4]": {"system": "Myzus persicae", "experiment": "Example 53: plum trees treated against Myzus persicae", "details": "population on shoots, g a.i./ha/m crown height: Actara 33.5, I-4 48", "description": "In four replications, plum trees of the cultivar “Angeleno” of a height of about 2.8 m are treated against Myzus persicae. The application is carried out using a high-pressure sprayer. Here, the active compound Example (I-4) (100 OD), in the stated amount, is tested against the commercial standard Actara (25 WG), at the stated application rate. The application rate is 500 l of water/ha/crown height in m.\nEvaluation is carried out 6, 9, 12, 20 days after the treatment by rating the kill of the population on the shoots."}, "[5]": {"system": "Selenaspidius articulatus", "experiment": "Example 19: orange trees treated against Selenaspidius articulatus", "details": "100 d after treatment, on leaves, % a.i.: methidathion 0.05, I-9 0.0288, I-4 0.0144", "description": "In three replications, 3-year-old orange trees of the cultivar “Pera natal” are treated against Selenaspidius articulatus. The application is carried out using a motor-operated knapsack sprayer. Here, the active compounds Example (I-9) (240 SC) and Example (I-4) (240 SC) at the stated application rate are tested against the standard methidathion (400 EC) in the stated amounts, applied once. The application rate is 3.3 l of water per tree.\nEvaluation is carried out 100 days after the treatment by rating the kill on the leaves."}, "[6]": {"system": "Dysmicoceus brevipes", "experiment": "Example 30a: guyabano tree treated against Dysmicoceus brevipes", "details": "on fruits, g a.i./m crown height: Lorsban 180, I-4 48", "description": "In three replications, in each case one guyabano tree is treated against Dysmicoceus brevipes. Here, the active compound Example (I-4) (240 SC), in a tank mix with 0.1% of rapeseed oil methyl ester (500 EW), is, at the stated application rate, tested against the commercial standard Lorsban (500 EC), at the stated application rate. The application is carried out using a motor-operated knapsack sprayer. Here, each plant is treated with spray liquor.\nEvaluation is carried out 3, 7 and 14 days after the treatment by rating the kill in percent on the fruits."}, "[7]": {"system": "Bemisia tabaci", "experiment": "Example 38: melons treated against Bemisia tabaci", "details": "nymphs on leaves, g a.i./ha: Confidor 100, I-4 72", "description": "In three replications, plots of a size of about 7.5 m^2 with melons of the cultivar “Piel DE Sapo” are treated against Bemisia tabaci. The application is carried out with a motor-operated knapsack sprayer. Here, the active compound Example (I-4) (240 SC), in a tank mix with 0.1% of a.i. of rapeseed oil methyl ester (500 EW), and the commercial standard Confidor (200 SL) are applied at the stated application rates. Two applications are carried out, at an interval of 7 days and at an application rate of 233 l of water/ha.\nEvaluation is carried out 7 and 15 days after the second treatment by rating the kill of the animals (nymphs) on the leaves."}, "[8]": {"system": "Bemisia argentifolii", "experiment": "Example 36: aubergine plants (Ryoma) treated against Bemisia argentifolii", "details": "nymphs on leaves, % a.i.: pymetrozine 0.0125, I-4 0.072, I-8 0.06", "description": "In three replications, in each case four aubergine plants of the cultivar “Ryoma” are treated against Bemisia argentifolii. The application is carried out using a motor-operated knapsack sprayer. Here, the active compounds Example (I-4) and Example (I-8), in a tank mix with 0.2% a.i. of rapeseed oil methyl ester (500 EW), and the commercial standard pymetrozine (25 WP) are tested at the stated application rates. The application rate is 3200 l of water/ha.\nEvaluation is carried out 13, 20 and 27 days after the treatment by rating the kill of the nymphs on the leaves."}},
  "data": [
    {"smiles": "CCOC(=O)OC1=C(c2cc(C)ccc2Br)C(=O)NC12CCC(OC)CC2", "note": "(stereo not drawn) [Example (I-2)]", "values": [
      {"measurement": "Kill (%) 21 d", "setting": "[1]; 21 d after application", "value": 80.8, "unit": "%"},
      {"measurement": "Kill (%) 29 d", "setting": "[1]; 29 d after application", "value": 91.8, "unit": "%"}
    ]},
    {"smiles": "CCOC(=O)OC1=C(c2cc(C)ccc2C)C(=O)NC12CCC(OC)CC2", "note": "(stereo not drawn) [Example (I-4)]", "values": [
      {"measurement": "Effect (%)", "setting": "[2]", "value": 98, "unit": "%"},
      {"measurement": "Kill (%) 36 d", "setting": "[3]; 36 d after treatment", "value": 81.1, "unit": "%"},
      {"measurement": "Kill (%) 51 d", "setting": "[3]; 51 d after treatment", "value": 81.5, "unit": "%"},
      {"measurement": "Kill (%) 62 d", "setting": "[3]; 62 d after treatment", "value": 92.1, "unit": "%"},
      {"measurement": "Kill (%) 76 d", "setting": "[3]; 76 d after treatment", "value": 92.9, "unit": "%"},
      {"measurement": "Kill (%) 6 d", "setting": "[4]; 6 d after treatment", "value": 96.4, "unit": "%"},
      {"measurement": "Kill (%) 9 d", "setting": "[4]; 9 d after treatment", "value": 99.7, "unit": "%"},
      {"measurement": "Kill (%) 12 d", "setting": "[4]; 12 d after treatment", "value": 99.8, "unit": "%"},
      {"measurement": "Kill (%) 20 d", "setting": "[4]; 20 d after treatment", "value": 99.9, "unit": "%"},
      {"measurement": "Kill (%) 27 d", "setting": "[4]; 27 d after treatment", "value": 99.9, "unit": "%"},
      {"measurement": "Kill (%) 100 d", "setting": "[5]", "value": 70, "unit": "%"},
      {"measurement": "Kill (%) 3 days", "setting": "[6]; 3 days after treatment", "value": 89.8, "unit": "%"},
      {"measurement": "Kill (%) 7 days", "setting": "[6]; 7 days after treatment", "value": 100, "unit": "%"},
      {"measurement": "Kill (%) 14 days", "setting": "[6]; 14 days after treatment", "value": 100, "unit": "%"},
      {"measurement": "Kill (%) 7 d", "setting": "[7]; 7 d after second treatment", "value": 85.3, "unit": "%"},
      {"measurement": "Kill (%) 15 d", "setting": "[7]; 15 d after second treatment", "value": 95.5, "unit": "%"},
      {"measurement": "Kill (%) 13 d", "setting": "[8]; 13 d after treatment", "value": 99.6, "unit": "%"},
      {"measurement": "Kill (%) 20 d", "setting": "[8]; 20 d after treatment", "value": 100, "unit": "%"},
      {"measurement": "Kill (%) 27 d", "setting": "[8]; 27 d after treatment", "value": 97, "unit": "%"}
    ]}
  ]
}
